Values of other authors in US9014457B2, “Quantifying cell death” (UCL Business PLC, priority 2009, dated 2015).

Tested on: neuronal cells
Conditions: cited from earlier work

Compound: CCCCCCCCCCCCCCCCCCN1C(=CC=CC2=[N+](CCCCCCCCCCCCCCCCCC)c3ccccc3C2(C)C)C(C)(C)c2ccccc21.[O-][Cl+3]([O-])([O-])[O-] [DiI, 1,1′-dioctadecyl-3,3,3′,3′-tetramethylindocarbocyanine perchlorate]
- cell viability, development or basic cellular physiological properties: does not affect
